Laboratory results published in ChEMBL document CHEMBL1833800, “Synthesis, preliminary biological evaluation and molecular modeling of some new heterocyclic inhibitors of TACE” (Eur J Med Chem, 2011).

Biological target: Disintegrin and metalloproteinase domain-containing protein 17 (Homo sapiens, UniProt P78536)
Test: Inhibition of TACE in human whole blood assessed as reduction of LPS-induced TNFalpha production pretreated 15 mins before LPS challenge measured 5 hrs post LPS challenge

Disintegrin and metalloproteinase domain-containing protein 17, sequence (P78536 whole entry, the tested form may be a part): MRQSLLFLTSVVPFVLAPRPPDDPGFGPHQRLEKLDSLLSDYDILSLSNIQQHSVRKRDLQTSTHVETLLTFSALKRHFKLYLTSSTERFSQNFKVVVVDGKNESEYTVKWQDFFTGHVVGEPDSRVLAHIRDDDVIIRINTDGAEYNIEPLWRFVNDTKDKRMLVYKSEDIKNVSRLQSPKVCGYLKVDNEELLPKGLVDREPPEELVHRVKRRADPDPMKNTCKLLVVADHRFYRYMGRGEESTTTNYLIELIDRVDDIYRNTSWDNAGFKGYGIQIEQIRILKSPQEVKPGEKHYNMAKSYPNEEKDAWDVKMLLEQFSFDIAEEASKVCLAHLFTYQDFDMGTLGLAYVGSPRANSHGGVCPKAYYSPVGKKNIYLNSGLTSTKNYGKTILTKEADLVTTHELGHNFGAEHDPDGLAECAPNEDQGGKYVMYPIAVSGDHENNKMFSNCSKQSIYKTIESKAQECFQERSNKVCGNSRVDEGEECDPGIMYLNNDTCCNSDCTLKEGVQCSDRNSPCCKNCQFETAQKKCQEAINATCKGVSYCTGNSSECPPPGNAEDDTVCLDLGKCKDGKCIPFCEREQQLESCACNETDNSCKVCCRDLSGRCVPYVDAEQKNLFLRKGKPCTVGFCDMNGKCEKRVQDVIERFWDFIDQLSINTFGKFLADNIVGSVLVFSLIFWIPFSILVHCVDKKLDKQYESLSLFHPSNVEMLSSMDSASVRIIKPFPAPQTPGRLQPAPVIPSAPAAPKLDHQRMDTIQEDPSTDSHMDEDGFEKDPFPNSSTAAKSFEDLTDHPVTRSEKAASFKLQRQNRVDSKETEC

IC50 [nM]	SMILES
126	Cc1nc2ccccc2n1Cc1ccc(C(=O)N[C@@H]2CCCC[C@@H]2C(=O)NO)cn1
70	Cc1nc2ccccc2n1Cc1ccc(C(=O)N[C@@H]2CCC[C@@H]2C(=O)NO)cn1 (single isomer, unassigned)
280	O=C(N[C@@H]1CCCC[C@@H]1C(=O)NO)c1ccc(Cn2c(C(F)(F)F)nc3ccccc32)nc1
160	O=C(N[C@@H]1CCOC[C@@H]1C(=O)NO)c1ccc(Cn2c(C(F)(F)F)nc3ccccc32)nc1
74	O=C(N[C@@H]1CCC[C@@H]1C(=O)NO)c1ccc(Cn2c(C(F)(F)F)nc3ccccc32)nc1 (single isomer, unassigned)
80	Cc1nc2ccccc2n1Cc1ccc(C(=O)N[C@@H]2CCOC[C@@H]2C(=O)NO)cn1
